Here are results for 1 compound from US20060140970A1, “Proteic binding partners of TCTP and methods of modulating tumor reversion or cell apoptosis” (priority 2003, published 2006).

For one assay, the system named is 293T HEK cells. Briefly: Polymerized tubulin fraction in cells, western blot anti-α-tubulin. Type of assay: cell-based. Here is the method: […] The treated cells were rinsed twice in PBS, lyzed on plates with 250 μl of a microtubule-stabilizing buffer (20 mM Tris-HCl, pH 6.8, 140 mM NaCl, 0.5 % Nonidet P-40, 1 mM MgCl2, 2 mM EGTA, 4 μg/ml Taxol, protease inhibitors cocktail), scraped and transferred into a 1.5 ml microcentrifuge tube. Each plate was rinsed with a second 250 μl of lysis buffer, and the cell lysates were pooled. The lysis occurred for 20 minutes at room temperature. The microcentrifuge tubes containing 500 μl of lyzed cells contents were briefly mixed and then centrifuged at 14,000 rpm for 10 minutes at 4° C. Supernatants containing soluble tubulin were carefully separated from pellets containing polymerized tubulin and placed in a separate tube. The pellets were quickly rinsed with additional 20 μl of lysis buffer and resuspended in 125 μl of water. […] The concentration of proteins in the supernatants was measured by spectrophotometry at 595 nm (Bradford method). Using these soluble tubulin concentration values, 60 μg of the polymerized tubulin fractions were run on a 10% acrylamide gel (SDS-PAGE system) and transferred on a nitrocellulose membrane (Biorad) that was incubated with an anti-a-tubulin (Sigma) diluted 1/2000. Since TCTP overexpression lead to a decrease of OP18 phosphorylation, and consequently, contribute to the maintenance of OP18 in its active state, it was hypothesized that TCTP overexpression would induce the microtubule depolymerization. To confirm this hypothesis, an assay that enables the isolation and monitoring of the tubulin in a microtubule polymerized state only, but not in a free soluble state, was performed. Briefly, after lysis of cells in a hypotonic buffer containing low dose of Taxol (a microtubule stabilizing agent) and a centrifugation, the polymerized fraction of tubulin was preserved and purified. Then, the amount of polymerized tubulin in cells was monitored by western blot using an anti-α-tubulin antibody.

In assay [1] the test system is OP18 phosphorylation in 293 HEK cells. Briefly: OP18 phosphorylation state, native PAGE and immunoblot. The following applies: nocodazole 250 ng/ml, control cells. Format: cell-based. As for the experimental part: Transfection, preparation of native OP18 enriched extracts, and analysis of OP18 phosphorylation levels. 293 T cells were transfected by the standard calcium phosphate method, with the following constructs: pEYFP (Clontech, BD) (negative control), pEYFP-TCTP wide type (WT) or the mutant pEYFP-TCTP S46A/S64A. Twenty four hours after the transfection, the cells were treated with nocodazole (250 ng/ml) for 0 hour, 1 hour, 2 hours, 4 hours and 8 hours, and rinsed twice in PBS. The pellets were lyzed with 3-5 volumes of lysis buffer (50 mM Tris-HCl, pH 7.5, 250 mM NaCl, 10 mM EDTA, 1% Nonidet P-40, protease inhibitors cocktail and phosphatases inhibitors (10 mM sodium orthovanadate, 10 mM natrium fluoride (NAF)) on ice for 20 minutes, and centrifuged for 10 minutes at 14,000 rpm at 4° C. The supernatants were carefully removed and stored on ice while measuring their concentration of proteins by spectrophotometry at 595 nm (Bradford method). To enrich the concentration of OP18 in the extracts, 1.2 mg of each total extract was boiled at 75° C. for 7 minutes, put on ice for 1 minute, and centrifuged for 10 minutes at 14,000 rpm at 4° C. Then, the supernatants were precipitated in 5-6 volumes of 1% sucrose in methanol O/N at −20° C. […]
For orientation: A western blot detects proteins with antibodies after separation by electrophoresis.

As to `COC(=O)Nc1nc2ccc(C(=O)c3cccs3)cc2[nH]1` [nocodazole], the “amount of polymerized tubulin” value in the assay with 293T HEK cells (16 hours of treatment, compared to untreated cells) is “no polymerized tubulin was present”. Moreover, in the assay on 293T HEK cells (nocodazole 250 ng/ml, increasing time, transfected 293T HEK cells), the “tubulin polymerization during nocodazole treatment” value is “decreased proportionally to the time length of treatment”. Further, the “time from which OP18 with three (3-P) and four (4-P) phosphorylated sites is detectable” value in assay [1] was at least 2 h.
